Measurements taken from PubChem BioAssay (NCI).
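Following 48 hours of exposure in 96-well plates, responses at five concentrations were used to interpolate endpoints linearly. GI50 = concentration required for 50% inhibition of growth. At the TGI there is no net growth.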

Key:
Assay in all cases: NCI-60 cell line screen, 48 h
A498 renal = test system: A498 renal
A549 NSCLC = test system: A549 NSCLC
CCRF-CEM leukemia = test system: CCRF-CEM leukemia
HOP-62 NSCLC = test system: HOP-62 NSCLC
HS 578T breast = test system: HS 578T breast
MCF7 breast = test system: MCF7 breast
NCI-H226 lung = test system: NCI-H226 lung
NCI-H460 lung = test system: NCI-H460 lung
SF-295 CNS = test system: SF-295 CNS
SK-OV-3 ovarian = test system: SK-OV-3 ovarian
SNB-19 CNS = test system: SNB-19 CNS
SNB-75 CNS = test system: SNB-75 CNS
SR leukemia = test system: SR leukemia

O=C(/C=C(/C=C/c1csc2ccccc12)OB(F)F)/C=C/c1csc2ccccc12
GI50 (A498 renal): > 50 µM
TGI (A498 renal): > 50 µM
GI50 (A549 NSCLC): > 50 µM
TGI (A549 NSCLC): > 50 µM
GI50 (CCRF-CEM leukemia): 0.244 µM
TGI (CCRF-CEM leukemia): > 50 µM
GI50 (HOP-62 NSCLC): > 50 µM
TGI (HOP-62 NSCLC): > 50 µM
GI50 (HS 578T breast): 2.06 µM
TGI (HS 578T breast): > 50 µM
GI50 (MCF7 breast): 1.06 µM
TGI (MCF7 breast): > 50 µM
GI50 (NCI-H226 lung): > 50 µM
TGI (NCI-H226 lung): > 50 µM
GI50 (NCI-H460 lung): > 50 µM
TGI (NCI-H460 lung): > 50 µM
GI50 (SF-295 CNS): > 26.2 µM
TGI (SF-295 CNS): > 50 µM
GI50 (SK-OV-3 ovarian): > 50 µM
TGI (SK-OV-3 ovarian): > 50 µM
GI50 (SNB-19 CNS): 3.62 µM
TGI (SNB-19 CNS): > 50 µM
GI50 (SNB-75 CNS): 2.79 µM
TGI (SNB-75 CNS): > 50 µM
GI50 (SR leukemia): 0.23 µM
TGI (SR leukemia): > 50 µM
